target: T1, human EP4 receptor (Homo sapiens, UniProt P35408); test: Human EP4 Scintillation Proximity Assay (radioligand binding); details: membranes of CHO cells expressing human EP4 receptor; [3H]-prostaglandin E2 radioligand; pKi from IC50 by Cheng-Prusoff; read-out: pKI at EP4 receptors (converted)
T1 construct: expressed in transfected cells; host or cells: Chinese Hamster Ovary (CHO) cells infected with recombinant Semliki Forest Virus (SFV-1) particles; membranes prepared from these cells
T1 sequence (P35408 whole entry): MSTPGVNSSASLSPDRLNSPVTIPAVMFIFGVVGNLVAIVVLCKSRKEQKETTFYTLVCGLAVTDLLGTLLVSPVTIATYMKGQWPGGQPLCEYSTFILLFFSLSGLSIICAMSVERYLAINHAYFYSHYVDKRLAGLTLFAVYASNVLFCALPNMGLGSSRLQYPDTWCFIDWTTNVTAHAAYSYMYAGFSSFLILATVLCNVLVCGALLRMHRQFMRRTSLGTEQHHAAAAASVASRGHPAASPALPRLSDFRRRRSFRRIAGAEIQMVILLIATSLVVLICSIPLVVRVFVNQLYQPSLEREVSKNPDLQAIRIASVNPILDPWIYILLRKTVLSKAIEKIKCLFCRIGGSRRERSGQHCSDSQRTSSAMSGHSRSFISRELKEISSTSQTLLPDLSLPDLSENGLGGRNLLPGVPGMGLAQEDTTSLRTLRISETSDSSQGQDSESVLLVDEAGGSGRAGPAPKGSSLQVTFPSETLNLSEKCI
Method: Quantification of radioligand binding by scintillation proximity assay (SPA) is a long-established principle. Briefly, the affinity of compounds for a receptor is assessed by the specific competition between known quantities of radiolabelled ligand and compound for that receptor. Increasing concentrations of compound reduce the amount of radiolabel that binds to the receptor. This gives rise to a diminishing scintillation signal from SPA beads coated with membranes that bear the receptor. The signal may be detected with a suitable scintillation counter and the data generated may be analysed with suitable curve-fitting software.
The human EP4 SPA assay (hereafter referred to as ‘the assay’) utilises membranes prepared from Chinese Hamster Ovary (CHO cells) infected with Semliki Forest Virus (SFV). Genetically engineered SFV-1 viral particles containing the genetic sequence of the human EP4 receptor were used to infect CHO cells resulting in expression of the receptor protein in cellular membranes. Cells washed free of media are homogenised in a pH-buffered medium containing peptidase inhibitors. A suitable buffer is of the following composition: 50 mM HEPES, 1 mM EDTA, 25 μg/ml bacitracin, 100 μM leupeptin, 1 mM PMSF, 2 μM Pepstatin A, pH adjusted to 7.4 with KOH. Following removal of cell debris by a low-speed centrifugation, a pellet of membranes is prepared by a high-speed (48000 g) centrifugation of the resulting supernatant. Membrane suspensions such as that described may be stored at −80° C. until used.
For assay, membranes expressing human EP4 receptors are diluted in a pH-buffered medium and mixed with SPA beads coated with a suitable substance to facilitate the adhesion of membranes to the beads. The concentrations of membrane protein and SPA beads chosen should result in SPA binding signal of at least 300 corrected counts per minute (CCPM) when tritiated radioligand at a concentration close to its Kd (affinity value) is combined with the mixture. Non-specific binding (nsb) may be determined by competition between the radiolabelled ligand and a saturating concentration of unlabelled ligand. In order to quantify the affinity of EP4 receptor ligands, compounds are diluted in a stepwise manner across the wells of a 96-well plate. Radioligand, compound, and unlabelled ligand are then added to a 96-well plate suitable for the measurement of SPA binding signals prior to the addition of bead/membrane mixture to initiate the binding reaction. Equilibrium may be achieved by incubation at room temperature for 120 minutes prior to scintillation counting. The data so generated may be analysed by means of a computerised curve-fitting routine in order to quantify the concentration of compound that displaces 50% of the specific radioligand binding (IC50). The affinity (pKi) of the compound may be calculated from the IC50 by application of the Cheng-Prusoff correction. Suitable reagents and protocols are: reaction buffer containing 50 mM HEPES, 10 mM MgCl2, pH adjusted to 7.4 with KOH; SPA beads coated with wheatgerm agglutinin; 1.25 nM [^3H]-prostaglandin E2 as radioligand; 10 μM prostaglandin E2 as unlabelled ligand; a three-fold dilution series of compound starting at 10 μM and ending at 0.3 nM is adequate.

With `CCOc1c2c(c(OCC)c3ccccc13)C(=O)N(c1ccc(CS(=O)(=O)NC(=O)Cc3cccc4ccccc34)cc1)C2=O` [Example 76] as the compound, how does the Ki read?
Its Ki is no more than 100 nM.

Which Ki does the source give for `CCOc1c2c(c(OCC)c3ccccc13)C(=O)N(c1ccc(CS(=O)(=O)NC(=O)Cc3cc(OC)ccc3OC)cc1)C2` [Example 36] here?
Its Ki is no more than 100 nM.

For `CCOc1c2c(c(OCC)c3ccccc13)C(=O)N(c1ccc(CS(=O)(=O)NC(=O)Cc3ccccc3OC)cc1)C2=O` [Example 71, 1-[4-(4,9-diethoxy-1,3-dioxo-1,3-dihydro-2H-benzo[f]isoindol-2-yl)phenyl]-N-[(2-methoxyphenyl)acetyl]methanesulfonamide], which Ki is on record?
The Ki was no more than 100 nM.

`CCOc1c2c(c(OCC)c3ccccc13)C(=O)N(c1ccc(CS(=O)(=O)NC(=O)Cc3cccc(OCc4ccccc4)c3)cc1)C2` [Example 42] was tested. Which Ki did it give?
Its Ki is no more than 100 nM.

Which Ki does the source give for `CCOc1c2c(c(OCC)c3ccccc13)C(=O)N(c1ccc(CS(=O)(=O)NC(=O)Cc3ccccc3C)cc1)C2` [Example 21] here?
The Ki was no more than 100 nM.

For `CCOc1c2c(c(OCC)c3ccccc13)C(=O)N(c1ccc(CS(=O)(=O)NC(=O)Cc3ccc(C)c(F)c3)cc1)C2=O` [Example 74], which Ki is on record?
Its Ki is no more than 100 nM.

Which Ki does the source give for `CCOc1c2c(c(OCC)c3ccccc13)C(=O)N(c1ccc(CS(=O)(=O)NC(=O)Cc3ccc(C(C)C)cc3)cc1)C2` [Example 27] here?
Its Ki is no more than 100 nM.

`CCOc1ccc(CC(=O)NS(=O)(=O)Cc2ccc(N3Cc4c(c(OCC)c5ccccc5c4OCC)C3=O)cc2)cc1OCC` [Example 82] was tested. Which Ki did it give?
The Ki was no more than 100 nM.

How did the Ki turn out when `CCOc1c2c(c(OCC)c3ccccc13)C(=O)N(c1ccc(CS(=O)(=O)NC(=O)Cc3cccc(OC(F)(F)F)c3)cc1)C2` [Example 81] was run?
The Ki was no more than 100 nM.

For `CCOc1c2c(c(OCC)c3ccccc13)C(=O)N(c1ccc(CS(=O)(=O)NC(=O)Cc3cc(OC)cc(OC)c3)cc1)C2` [Example 83], which Ki is on record?
Its Ki is no more than 100 nM.

Which Ki does the source give for `CCOc1c2c(c(OCC)c3ccccc13)C(=O)N(c1ccc(CS(=O)(=O)NC(=O)Cc3cccc(OC)c3OC)cc1)C2` [Example 34, 1-[4-(4,9-diethoxy-1-oxo-1,3-dihydro-2H-benzo[f]isoindol-2-yl)phenyl]-N-[(2,3-dimethoxyphenyl)acetyl]methanesulfonamide] here?
Its Ki is no more than 100 nM.

With `CCOc1c2c(c(OCC)c3ccccc13)C(=O)N(c1ccc(CS(=O)(=O)NC(=O)Cn3ccc4ccccc43)cc1)C2` [Example 87] as the compound, how does the Ki read?
The Ki was no more than 100 nM.

For `CCOc1c2c(c(OCC)c3ccccc13)C(=O)N(c1ccc(CS(=O)(=O)NC(=O)C(CC)c3ccccc3)cc1)C2=O` (stereo not drawn) [Example 64], which Ki is on record?
The Ki was no more than 100 nM.

With `CCOc1c2c(c(OCC)c3ccccc13)C(=O)N(c1ccc(CS(=O)(=O)NC(=O)Cc3c(C)cccc3C)cc1)C2=O` [Example 72] as the compound, how does the Ki read?
Its Ki is no more than 100 nM.

How did the Ki turn out when `CCOc1c2c(c(OCC)c3ccccc13)C(=O)N(c1ccc(CS(=O)(=O)NC(=O)C(Cl)c3ccccc3)cc1)C2=O` (stereo not drawn) [Example 75] was run?
Its Ki is no more than 100 nM.
